Assay results from US6602827B1, “Herbicidal 5-chlorodifluoromethyl-1,3,4-thiadiazol-2-yl-oxyacetanilides” (Bayer Aktiengesellschaft, priority 1999, dated 2003).

What was measured:
Eriochloa = assay: Pre-emergence test/greenhouse; assay type: in vivo; details: 125 g of ai./ha, rated after three weeks vs untreated control, 0% = no effect, 100% = total destruction
Procedure: (§1) Pre-emergence Test Solvent: 5 parts by weight of acetone Emulsifier: 1 part by weight of alkylaryl polyglycol ether To produce a suitable preparation of active compound, 1 part by weight of active compound is mixed with the stated amount of solvent, the stated amount of emulsifier is added and the concentrate is diluted with water to the desired concentration. Seeds of the test plants are sown in normal soil. After 24 hours, the soil is sprayed with the preparation of active compound such that the particular amount of active compound desired is applied per unit area. The active compound concentration in the spray liquor is chosen so that the particular amount of active compound desired is applied in 1000 liters of water per hectare. After three weeks, the degree of damage to the plants is rated in % damage in comparison to the development of the untreated control. The figures denote: 0%=no effect (like untreated control) 100%=total destruction

Galium [1] = assay: Pre-emergence test/greenhouse; assay type: in vivo; details: 125 g of ai./ha, rated after three weeks vs untreated control, 0% = no effect, 100% = total destruction
Procedure: as §1

Lolium = assay: Pre-emergence test/greenhouse; assay type: in vivo; details: 125 g of ai./ha, rated after three weeks vs untreated control, 0% = no effect, 100% = total destruction
Procedure: as §1

Matricaria = assay: Pre-emergence test/greenhouse; assay type: in vivo; details: 125 g of ai./ha, rated after three weeks vs untreated control, 0% = no effect, 100% = total destruction
Procedure: as §1

Setaria [2] = assay: Pre-emergence test/greenhouse; assay type: in vivo; details: 125 g of ai./ha, rated after three weeks vs untreated control, 0% = no effect, 100% = total destruction
Procedure: as §1

Soya = assay: Pre-emergence test/greenhouse; assay type: in vivo; details: 125 g of ai./ha, rated after three weeks vs untreated control, 0% = no effect, 100% = total destruction
Procedure: as §1

Wheat = assay: Pre-emergence test/greenhouse; assay type: in vivo; details: 125 g of ai./ha, rated after three weeks vs untreated control, 0% = no effect, 100% = total destruction
Procedure: as §1

Galium [3] = assay: Post-emergence test/greenhouse; assay type: in vivo; details: 1000 g of ai./ha, rated after three weeks vs untreated control, 0% = no effect, 100% = total destruction
Procedure: (§2) Solvent: 5 parts by weight of acetone
(§3) Emulsifier: 1 part by weight of alkylaryl polyglycol ether
(§4) To produce a suitable preparation of active compound, 1 part by weight of active compound is mixed with the stated amount of solvent, the stated amount of emulsifier is added and the concentrate is diluted with water to the desired concentration.
(§5) Test plants which have a height of 5 to 15 cm are sprayed with the preparation of active compound such that the particular amounts of active compound desired are applied per unit area. The concentration of the spray liquor is chosen so that the particular amounts of active compound desired are applied in 1000 1 of water/ha.
(§6) After three weeks, the degree of damage to the plants is rated in % damage in comparison to the development of the untreated control.
(§7) 0%=no effect (like untreated control))

Maize = assay: Post-emergence test/greenhouse; assay type: in vivo; details: 1000 g of ai./ha, rated after three weeks vs untreated control, 0% = no effect, 100% = total destruction
Procedure: as §2, §3, §4, §5, §6, §7

Setaria [4] = assay: Post-emergence test/greenhouse; assay type: in vivo; details: 1000 g of ai./ha, rated after three weeks vs untreated control, 0% = no effect, 100% = total destruction
Procedure: as §2, §3, §4, §5, §6, §7

Xanthium = assay: Post-emergence test/greenhouse; assay type: in vivo; details: 1000 g of ai./ha, rated after three weeks vs untreated control, 0% = no effect, 100% = total destruction
Procedure: as §2, §3, §4, §5, §6, §7

weeds [5] = assay: Pre-emergence test, overall activity against weeds; assay type: in vivo; details: in words
Procedure: as §1

[6] = tested on: crop plants, such as soya and wheat; assay: Pre-emergence test, crop tolerance; assay type: in vivo; details: in words
Procedure: as §1

weeds [7] = assay: Post-emergence test, overall activity against weeds; assay type: in vivo; details: in words
Procedure: as §2, §3, §4, §5, §6, §7

[8] = tested on: crop plants, such as maize; assay: Post-emergence test, crop tolerance; assay type: in vivo; details: in words
Procedure: as §2, §3, §4, §5, §6, §7

For `CC(C)N(C(=O)COc1nnc(C(F)(F)Cl)s1)c1ccc(F)cc1` [Example 1, N-i-propyl-N-(4-fluoro-phenyl)-2-(5-chlorodifluoromethyl-1,3,4-thiadiazol-2-yl-oxy)-acetamide], the “degree of damage, Eriochloa” value (Eriochloa) was 100%, the “degree of damage, Galium” value (Galium [1]) was 90% and the “degree of damage, Lolium” value (Lolium) was 90%. For the same compound, the “degree of damage, Matricaria” value (Matricaria) was 100%, the “degree of damage, Setaria” value (Setaria [2]) was 100% and the “degree of damage, Soya” value (Soya) was 0%. For the same compound, the “degree of damage, Wheat” value (Wheat) was 0%, the “degree of damage, Galium” value (Galium [3]) was 95% and the “degree of damage, Maize” value (Maize) was 30%. The “degree of damage, Setaria” value (Setaria [4]) was 95%, the “degree of damage, Xanthium” value (Xanthium) was 80% and the activity against weeds (weeds [5]) was “very strong activity”. The “tolerance by crop plants” value [6] was “tolerated well”, the activity against weeds (weeds [7]) was “strong activity” and the “tolerance by crop plants” value [8] was “tolerated well”. For the same compound, the melting point was 98 °C.
